Assay results reported in patent US9573938B2 (priority 2012, dated 2017).

How the values were obtained:
HIV-1 integrase [1] = biological target: T1, HIV-1 integrase (Human immunodeficiency virus type 1 group M subtype B, UniProt P12497); assay: 3′-processing assay; format: biochemical; settings: 500 nM integrase, blunt ended 32P-labled 21-mer U5 DNA, 37° C. 1 hour; read-out: IC50 (μM) 3′-Process
Experimental: (§1) The two metal binding motif of these compounds allows for potential cross reactivity with other drug targets with two metal containing active sites. Compounds were tested for LEDGF independent integration (strand transfer) and 3′ processing based on established protocols (Kessl et al.; J Biol Chem, 2012; 287:16801-16811).
(§2) The 3′-processing was assayed using blunt ended ^32P-labled 21-mer synthetic double stranded U5 DNA. The strand transfer assay used ^32P-labled recessed end 19-mer synthetic double stranded U5 DNA. 500 nM integrase was pre-incubated with compound for 30 minutes on ice in 50 mM MOPS (pH 7.2) buffer containing 2 mM β-mercaptoethanol, 50 mM NaCl and 10 mM MgCl2. 50 nM DNA substrate was added to the reaction and incubated at 37° C. for 1 hour when the reactions were stopped with 50 mM EDTA. The reaction products are subjected to denaturing polyacrylamide gel electrophoresis and visualized using a Storm 860 Phosphorimager (Amersham Biosciencs). The ICs50s of representative compounds of formula (I) as detected with a LEDGF independent integration assay or a 3′-processing assay are shown in the following table.

HIV-1 integrase [2] = biological target: T1, HIV-1 integrase; assay: LEDGF independent integration (strand transfer) assay; format: biochemical; settings: 500 nM integrase, 32P-labled recessed end 19-mer U5 DNA, 37° C. 1 hour
Experimental: as §1, §2

| Structure (SMILES) | IC50 (HIV-1 integrase [1]) | IC50 (HIV-1 integrase [2]) |
| --- | --- | --- |
| O=c1[nH]c(-c2ccc(O)c(O)c2)ccc1O [drawing 237] | 8.2 ± 2.5 µM | 6 ± 0.8 µM |
| O=c1[nH]c(-c2ccc(-c3nnn[nH]3)cc2)c(-c2ccc(F)cc2)cc1O [drawing 238] | 20.8 ± 5.8 µM | 11.7 ± 1.5 µM |
| O=c1[nH]cc(-c2ccc(F)cc2)cc1O [drawing 239] | 11.6 ± 1.6 µM | 15.7 ± 0.9 µM |
| O=C(O)c1cccc(-c2c[nH]c(=O)c(O)c2)c1 [drawing 240] | 22.2 ± 2.5 µM | 20.5 ± 1.3 µM |
| O=c1[nH]c(-c2ccc(-c3nnn[nH]3)cc2)ccc1O [drawing 241] | 12.6 ± 3.2 µM | 23.7 ± 2.7 µM |
| O=C(O)c1ccc(-c2c[nH]c(=O)c(O)c2)cc1 [drawing 242] | 7.4 ± 1.6 µM | 50.7 ± 2.9 µM |
